Laboratory results published in PubChem BioAssay AID2060498 (Molecular Pharmacology Branch, DTP, NCI, 2025).

System: 171881-019-R-J1-PDC tumor spheroids, viability
Assay: Anticancer human tumor 171881-019-R-J1-PDC patient-derived invasive breast carcinoma cell line growth inhibition [GQUAD]
Details: spheroids with HUVEC and MSC; for IC50: curve of first compound; for viability, T/C: stronger effect = lower value; active = viability on the fitted dose curve at most 10% of control; inactive = the rest
How it was run: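 Multi-cell-type spheroids of tumor cells with HUVEC and mesenchymal stem cells, treated with drug combinations. Concentrations descend in half-log steps from near clinical Cmax, or from 10 microM where Cmax is unknown; viability read-out.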

[1] = second compound 0.0316 µM, first compound 0.0316 µM
[2] = second compound 0.0316 µM, first compound 0.1 µM
[3] = second compound 0.0316 µM, first compound 0.316 µM
[4] = second compound 0.0316 µM, first compound 1 µM
[5] = second compound 0.0316 µM, first compound 3.16 µM
[6] = second compound 0.0316 µM, first compound 10 µM
[7] = second compound 0.1 µM, first compound 0.0316 µM
[8] = second compound 0.1 µM, first compound 0.1 µM
[9] = second compound 0.1 µM, first compound 0.316 µM
[10] = second compound 0.1 µM, first compound 1 µM
[11] = second compound 0.1 µM, first compound 3.16 µM
[12] = second compound 0.1 µM, first compound 10 µM
[13] = second compound 0.316 µM, first compound 0.0316 µM
[14] = second compound 0.316 µM, first compound 0.1 µM
[15] = second compound 0.316 µM, first compound 0.316 µM
[16] = second compound 0.316 µM, first compound 1 µM
[17] = second compound 0.316 µM, first compound 3.16 µM
[18] = second compound 0.316 µM, first compound 10 µM
[19] = second compound 1 µM, first compound 0.0316 µM
[20] = second compound 1 µM, first compound 0.1 µM
[21] = second compound 1 µM, first compound 0.316 µM
[22] = second compound 1 µM, first compound 1 µM
[23] = second compound 1 µM, first compound 3.16 µM
[24] = second compound 1 µM, first compound 10 µM
[25] = second compound 3.16 µM, first compound 0.0316 µM
[26] = second compound 3.16 µM, first compound 0.1 µM
[27] = second compound 3.16 µM, first compound 0.316 µM
[28] = second compound 3.16 µM, first compound 1 µM
[29] = second compound 3.16 µM, first compound 3.16 µM
[30] = second compound 3.16 µM, first compound 10 µM
[31] = second compound 10 µM, first compound 0.0316 µM
[32] = second compound 10 µM, first compound 0.1 µM
[33] = second compound 10 µM, first compound 0.316 µM
[34] = second compound 10 µM, first compound 1 µM
[35] = second compound 10 µM, first compound 3.16 µM
[36] = second compound 10 µM, first compound 10 µM
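Note: spheroids exposed to compounds for 7 days.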
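Throughout, for viability, T/C: 100% = DMSO vehicle control viability.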

CC1COCCN1c1cc(-c2ccnn2C)c2ccnc(-c3ccn[nH]3)c2n1 (centres undefined) + Cc1cnc(CNC(=O)c2c(=O)c3ccc(N4CCCN(C)CC4)nc3n3c2sc2ccccc23)cn1
0.0368 µM: IC50 (second compound 3.16 µM)
< 0.0316 µM: IC50 (second compound 0.0316 µM) | IC50 (second compound 0.1 µM) | IC50 (second compound 0.316 µM) | IC50 (second compound 1 µM) | IC50 (second compound 10 µM)
inactive: viability, T/C [1] 41.9% | viability, T/C [2] 22.4% | viability, T/C [3] 13.9% | viability, T/C [7] 42.5% | viability, T/C [8] 24.9% | viability, T/C [9] 14.8% | viability, T/C [13] 41.5% | viability, T/C [14] 27.8% | viability, T/C [15] 17.2% | viability, T/C [19] 46.4% | viability, T/C [20] 33% | viability, T/C [21] 21.6% | viability, T/C [22] 11.2% | viability, T/C [25] 52.4% | viability, T/C [26] 35.1% | viability, T/C [27] 25.4% | viability, T/C [28] 13.4% | viability, T/C [31] 48.2% | viability, T/C [32] 38.8% | viability, T/C [33] 24.1% | viability, T/C [34] 13.9%
active: viability, T/C [4] 8.64% | viability, T/C [5] 5.53% | viability, T/C [6] 5.12% | viability, T/C [10] 8.31% | viability, T/C [11] 5.49% | viability, T/C [12] 5.8% | viability, T/C [16] 9.26% | viability, T/C [17] 5.7% | viability, T/C [18] 5.04% | viability, T/C [23] 6.82% | viability, T/C [24] 4.69% | viability, T/C [29] 6.44% | viability, T/C [30] 4.66% | viability, T/C [35] 7.41% | viability, T/C [36] 4.56%

CC1COCCN1c1cc(C2(S(C)(=N)=O)CC2)nc(-c2ccnc3[nH]ccc23)n1 (centres undefined) + Cc1cnc(CNC(=O)c2c(=O)c3ccc(N4CCCN(C)CC4)nc3n3c2sc2ccccc23)cn1
active: viability, T/C [12] 10.7%
0.755 µM: IC50 (second compound 0.316 µM)
1.04 µM: IC50 (second compound 0.0316 µM) | IC50 (second compound 3.16 µM)
1.11 µM: IC50 (second compound 10 µM)
1.12 µM: IC50 (second compound 1 µM)
inactive: viability, T/C [1] 93.8% | viability, T/C [2] 82.8% | viability, T/C [3] 90.7% | viability, T/C [4] 50.8% | viability, T/C [5] 15.5% | viability, T/C [6] 9.59% | viability, T/C [7] 87.5% | viability, T/C [8] 87.8% | viability, T/C [9] 74.1% | viability, T/C [10] 53.9% | viability, T/C [11] 18.7% | viability, T/C [13] 74.9% | viability, T/C [14] 80.5% | viability, T/C [15] 63.5% | viability, T/C [16] 45.7% | viability, T/C [17] 21.7% | viability, T/C [18] 11.2% | viability, T/C [19] 67.6% | viability, T/C [20] 61.5% | viability, T/C [21] 68.7% | viability, T/C [22] 50.3% | viability, T/C [23] 28.7% | viability, T/C [24] 13.6% | viability, T/C [25] 61.9% | viability, T/C [26] 56.9% | viability, T/C [27] 58.7% | viability, T/C [28] 50.3% | viability, T/C [29] 35.1% | viability, T/C [30] 17.1% | viability, T/C [31] 57.5% | viability, T/C [32] 64.1% | viability, T/C [33] 57.2% | viability, T/C [34] 51.9% | viability, T/C [35] 33% | viability, T/C [36] 16.2%
1.05 µM: IC50 (second compound 0.1 µM)
